How the values were obtained:
[1] = system: MCF7; assay: Antiproliferative activity against human MCF7 cells assessed as cell growth inhibition incubated for 8 hrs by CCK8 assay; type: functional, cell-based; conditions: MCF7, 8 h
[2] = system: A549; assay: Antiproliferative activity against human A549 cells assessed as cell growth inhibition incubated for 8 hrs by CCK8 assay; type: functional, cell-based; conditions: A549, 8 h
[3] = system: HCT-116; assay: Antiproliferative activity against human HCT-116 cells assessed as cell growth inhibition incubated for 8 hrs by CCK8 assay; type: functional, cell-based; conditions: HCT-116, 8 h
[4] = system: HepG2; assay: Antiproliferative activity against human HepG2 cells assessed as cell growth inhibition incubated for 8 hrs by CCK8 assay; type: functional, cell-based; conditions: HepG2, 8 h
[5] = system: K562; assay: Antiproliferative activity against human K562 cells assessed as cell growth inhibition incubated for 8 hrs by CCK8 assay; type: functional, cell-based; conditions: K562, 8 h
[6] = system: HEL; assay: Antiproliferative activity against HEL cells assessed as cell growth inhibition incubated for 8 hrs by CCK8 assay; type: functional, cell-based; conditions: Homo sapiens
[7] = system: HEL; assay: Synergistic antiproliferative effect on HEL cells assessed as fractional inhibitory concentration index at 10 uM in presence of vorinostat; type: functional, Homo sapiens
[8] = system: HEL; assay: Synergistic antiproliferative effect on HEL cells assessed as fractional inhibitory concentration index at 3.33 uM in presence of vorinostat; type: functional, Homo sapiens
[9] = system: HEL; assay: Synergistic antiproliferative effect on HEL cells assessed as fractional inhibitory concentration index at 1.11 uM in presence of vorinostat; type: functional, Homo sapiens
[10] = system: HEL; assay: Synergistic antiproliferative effect on HEL cells assessed as fractional inhibitory concentration index at 0.37 uM in presence of vorinostat; type: functional, Homo sapiens
[11] = system: HEL; assay: Synergistic antiproliferative effect on HEL cells assessed as fractional inhibitory concentration index at 0.12 uM in presence of vorinostat; type: functional, Homo sapiens
[12] = system: HEL; assay: Synergistic antiproliferative effect on HEL cells assessed as fractional inhibitory concentration index at 0.04 uM in presence of vorinostat; type: functional, Homo sapiens
[13] = system: HEL; assay: Synergistic antiproliferative effect on HEL cells assessed as fractional inhibitory concentration index at 0.014 uM in presence of vorinostat; type: functional, Homo sapiens
[14] = system: HEL; assay: Synergistic antiproliferative effect on HEL cells assessed as fractional inhibitory concentration index at 0.0046 uM in presence of vorinostat; type: functional, Homo sapiens
[15] = system: HEL; assay: Synergistic antiproliferative effect on HEL cells assessed as combination index at 10 uM in presence of vorinostat; type: functional, Homo sapiens
[16] = system: HEL; assay: Synergistic antiproliferative effect on HEL cells assessed as combination index at 3.33 uM in presence of vorinostat; type: functional, Homo sapiens
[17] = system: HEL; assay: Synergistic antiproliferative effect on HEL cells assessed as combination index at 1.11 uM in presence of vorinostat; type: functional, Homo sapiens
[18] = system: HEL; assay: Synergistic antiproliferative effect on HEL cells assessed as combination index at 0.37 uM in presence of vorinostat; type: functional, Homo sapiens
[19] = system: HEL; assay: Synergistic antiproliferative effect on HEL cells assessed as combination index at 0.12 uM in presence of vorinostat; type: functional, Homo sapiens
[20] = system: HEL; assay: Synergistic antiproliferative effect on HEL cells assessed as combination index at 0.04 uM in presence of vorinostat; type: functional, Homo sapiens
[21] = system: HEL; assay: Synergistic antiproliferative effect on HEL cells assessed as combination index at 0.014 uM in presence of vorinostat; type: functional, Homo sapiens
[22] = system: HEL; assay: Synergistic antiproliferative effect on HEL cells assessed as combination index at 0.046 uM in presence of vorinostat; type: functional, Homo sapiens
[23] = system: HEL; assay: Antitumor activity against HEL cells xenografted in BALB/C mouse assessed as tumor growth inhibition at 10 mg/kg, po qd for 14 days consecutively by caliper method relative to control; type: functional, Homo sapiens; conditions: 336 h, time 14 day, read-out: TGI
[24] = system: HEL; assay: Antitumor activity against HEL cells xenografted in BALB/C mouse assessed as T/C value at 10 mg/kg, po qd for 14 days consecutively by caliper method relative to control; type: functional, Homo sapiens; conditions: time 14 day

Question: How did the IC50 [1] turn out when `CN1c2ccc(F)cc2C(=O)N2CCc3c([nH]c4ccc(O)cc34)C21` (centres undefined) was run?
Answer: 0.76 µM

Question: What about the IC50 [2] of the same compound?
Answer: 0.53 µM

Question: And the IC50 [3]?
Answer: 0.19 µM

Question: And the IC50 [4]?
Answer: 0.43 µM

Question: What about the IC50 [5] of the same compound?
Answer: 0.23 µM

Question: What about the IC50 [6] of the same compound?
Answer: 0.13 µM

Question: And the “fractional inhibitory concentration index (FICI)” value [7]?
Answer: 0.86

Question: And the “fractional inhibitory concentration index (FICI)” value [8]?
Answer: 0.862

Question: What about the “fractional inhibitory concentration index (FICI)” value [9] of the same compound?
Answer: 0.852

Question: And the “fractional inhibitory concentration index (FICI)” value [10]?
Answer: 0.868

Question: What about the “fractional inhibitory concentration index (FICI)” value [11] of the same compound?
Answer: 0.853

Question: What about the “fractional inhibitory concentration index (FICI)” value [12] of the same compound?
Answer: 0.836

Question: What about the “fractional inhibitory concentration index (FICI)” value [13] of the same compound?
Answer: 0.802

Question: What about the “fractional inhibitory concentration index (FICI)” value [14] of the same compound?
Answer: 0.727

Question: And the CI [15]?
Answer: 1.03

Question: What about the CI [16] of the same compound?
Answer: 0.954

Question: What about the CI [17] of the same compound?
Answer: 0.954

Question: What about the CI [18] of the same compound?
Answer: 0.956

Question: What about the CI [19] of the same compound?
Answer: 0.798

Question: And the CI [20]?
Answer: 0.784

Question: And the CI [21]?
Answer: 0.561

Question: What about the CI [22] of the same compound?
Answer: 0.453

Question: What about the inhibition in vivo at 10 mg/kg [23] of the same compound?
Answer: 7.4%

Question: What about the T/C [24] of the same compound?
Answer: 94.9%

Source: ChEMBL document CHEMBL5046291, “Evodiamine-Inspired Topoisomerase-Histone Deacetylase Dual Inhibitors: Novel Orally Active Antitumor Agents for Leukemia Therapy” (J Med Chem, 2022)
